Assay [1] has as its target Putative heat shock protein HSP 90-beta 2 (Homo sapiens, UniProt Q58FF8).
Assay [2] has as its target cAMP-dependent protein kinase catalytic subunit alpha (Homo sapiens, UniProt P17612).
Assay [3] addresses Tyrosine-protein kinase Fyn (Homo sapiens, UniProt P06241).
In assay [4] the target is T1, Serine/threonine-protein kinase TAO1 (Homo sapiens, UniProt Q7L7X3).
T1 sequence (Q7L7X3 whole entry): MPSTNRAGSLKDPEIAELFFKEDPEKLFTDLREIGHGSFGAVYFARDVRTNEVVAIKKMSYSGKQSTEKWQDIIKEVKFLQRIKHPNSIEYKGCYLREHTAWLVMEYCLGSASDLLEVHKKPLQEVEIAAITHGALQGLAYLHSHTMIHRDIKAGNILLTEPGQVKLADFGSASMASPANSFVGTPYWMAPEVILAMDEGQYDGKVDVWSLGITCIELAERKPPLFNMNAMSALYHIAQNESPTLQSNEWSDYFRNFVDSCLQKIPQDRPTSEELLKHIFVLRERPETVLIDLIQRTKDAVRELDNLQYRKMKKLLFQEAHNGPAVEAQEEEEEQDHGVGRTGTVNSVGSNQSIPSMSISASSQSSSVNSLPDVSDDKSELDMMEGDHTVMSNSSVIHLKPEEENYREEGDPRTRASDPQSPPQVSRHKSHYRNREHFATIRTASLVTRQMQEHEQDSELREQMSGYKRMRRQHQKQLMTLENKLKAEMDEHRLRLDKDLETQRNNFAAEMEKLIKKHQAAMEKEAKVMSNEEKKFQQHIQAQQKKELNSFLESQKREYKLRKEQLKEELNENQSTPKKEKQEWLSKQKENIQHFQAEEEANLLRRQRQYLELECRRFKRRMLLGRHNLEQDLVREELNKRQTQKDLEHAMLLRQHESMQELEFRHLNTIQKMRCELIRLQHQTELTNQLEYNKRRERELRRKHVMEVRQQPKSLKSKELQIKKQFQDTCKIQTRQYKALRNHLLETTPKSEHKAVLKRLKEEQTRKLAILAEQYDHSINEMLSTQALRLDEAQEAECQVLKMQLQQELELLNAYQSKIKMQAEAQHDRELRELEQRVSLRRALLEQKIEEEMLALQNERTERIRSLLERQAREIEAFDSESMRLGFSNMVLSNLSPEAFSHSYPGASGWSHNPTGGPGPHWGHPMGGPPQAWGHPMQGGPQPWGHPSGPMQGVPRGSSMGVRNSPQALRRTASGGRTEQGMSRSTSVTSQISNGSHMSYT

For assay [5], the target named is Deoxycytidine kinase (Homo sapiens, UniProt P27707).
Deoxycytidine kinase, sequence (P27707 whole entry): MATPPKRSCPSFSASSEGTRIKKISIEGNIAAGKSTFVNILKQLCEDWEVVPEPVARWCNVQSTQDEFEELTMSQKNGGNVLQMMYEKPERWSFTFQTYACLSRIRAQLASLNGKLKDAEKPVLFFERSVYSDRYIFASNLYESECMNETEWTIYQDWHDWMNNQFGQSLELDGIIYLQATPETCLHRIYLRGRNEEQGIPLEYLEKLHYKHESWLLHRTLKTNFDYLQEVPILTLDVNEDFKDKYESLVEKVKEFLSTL
The target in assay [6] is Mitogen-activated protein kinase kinase kinase 1 (Homo sapiens, UniProt Q13233).
Mitogen-activated protein kinase kinase kinase 1, sequence (Q13233 whole entry): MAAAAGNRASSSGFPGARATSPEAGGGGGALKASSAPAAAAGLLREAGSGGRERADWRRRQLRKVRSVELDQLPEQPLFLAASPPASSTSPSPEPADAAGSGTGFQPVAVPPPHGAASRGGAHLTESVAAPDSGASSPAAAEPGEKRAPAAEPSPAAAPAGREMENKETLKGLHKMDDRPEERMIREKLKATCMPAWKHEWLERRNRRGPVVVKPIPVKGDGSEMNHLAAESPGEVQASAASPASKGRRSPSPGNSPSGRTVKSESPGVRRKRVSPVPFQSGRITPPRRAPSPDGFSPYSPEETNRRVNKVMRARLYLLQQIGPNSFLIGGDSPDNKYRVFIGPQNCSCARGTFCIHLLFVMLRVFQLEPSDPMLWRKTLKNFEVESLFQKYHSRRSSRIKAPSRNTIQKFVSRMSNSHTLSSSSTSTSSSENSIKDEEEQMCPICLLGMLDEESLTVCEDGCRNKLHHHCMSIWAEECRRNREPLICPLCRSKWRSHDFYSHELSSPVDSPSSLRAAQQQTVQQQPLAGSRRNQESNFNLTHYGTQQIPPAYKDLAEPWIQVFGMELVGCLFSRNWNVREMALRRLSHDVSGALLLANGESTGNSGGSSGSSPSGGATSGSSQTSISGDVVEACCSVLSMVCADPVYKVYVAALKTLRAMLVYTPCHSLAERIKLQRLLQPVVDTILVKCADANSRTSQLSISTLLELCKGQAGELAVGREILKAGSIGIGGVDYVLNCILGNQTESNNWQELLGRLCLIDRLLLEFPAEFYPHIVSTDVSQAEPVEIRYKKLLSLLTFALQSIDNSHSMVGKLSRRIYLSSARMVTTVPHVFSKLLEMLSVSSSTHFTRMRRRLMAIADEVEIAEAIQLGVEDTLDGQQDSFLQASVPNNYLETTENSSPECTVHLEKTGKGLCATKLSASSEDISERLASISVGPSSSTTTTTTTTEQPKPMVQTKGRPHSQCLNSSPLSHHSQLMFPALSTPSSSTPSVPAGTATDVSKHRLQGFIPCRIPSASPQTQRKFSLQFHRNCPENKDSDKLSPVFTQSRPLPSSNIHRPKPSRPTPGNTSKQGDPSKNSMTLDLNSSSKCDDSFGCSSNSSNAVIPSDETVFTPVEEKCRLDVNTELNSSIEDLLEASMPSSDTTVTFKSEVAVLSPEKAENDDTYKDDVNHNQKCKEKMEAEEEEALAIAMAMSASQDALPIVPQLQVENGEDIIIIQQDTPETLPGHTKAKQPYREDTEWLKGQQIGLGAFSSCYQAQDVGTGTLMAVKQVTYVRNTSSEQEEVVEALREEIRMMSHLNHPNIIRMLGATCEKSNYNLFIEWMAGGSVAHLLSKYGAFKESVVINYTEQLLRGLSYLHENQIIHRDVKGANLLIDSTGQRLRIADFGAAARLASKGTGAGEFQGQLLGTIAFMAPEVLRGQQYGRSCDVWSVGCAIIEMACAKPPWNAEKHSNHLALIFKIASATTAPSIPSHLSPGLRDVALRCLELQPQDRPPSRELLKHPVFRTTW
For assay [7], the target named is T2, Serine/threonine-protein kinase A-Raf (Homo sapiens, UniProt P10398).
T2 sequence (P10398 whole entry): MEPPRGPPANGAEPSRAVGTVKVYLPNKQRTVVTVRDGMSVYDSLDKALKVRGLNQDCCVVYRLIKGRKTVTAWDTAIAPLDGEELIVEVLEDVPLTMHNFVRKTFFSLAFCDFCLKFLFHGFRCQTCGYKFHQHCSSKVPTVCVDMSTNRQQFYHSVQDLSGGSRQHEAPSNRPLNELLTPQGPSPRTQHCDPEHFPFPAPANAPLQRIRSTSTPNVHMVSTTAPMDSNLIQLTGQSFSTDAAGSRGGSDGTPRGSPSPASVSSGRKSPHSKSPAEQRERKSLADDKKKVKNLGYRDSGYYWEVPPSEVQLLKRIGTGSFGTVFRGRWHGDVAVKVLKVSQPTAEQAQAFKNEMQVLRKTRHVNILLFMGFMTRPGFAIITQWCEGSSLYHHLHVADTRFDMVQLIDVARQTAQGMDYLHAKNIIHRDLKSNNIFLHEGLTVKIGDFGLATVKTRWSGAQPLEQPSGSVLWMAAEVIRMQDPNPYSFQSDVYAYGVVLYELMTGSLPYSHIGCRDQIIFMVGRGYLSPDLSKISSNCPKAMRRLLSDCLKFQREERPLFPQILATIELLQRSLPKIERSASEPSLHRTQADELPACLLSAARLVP

Assay [8] has as its target TRAF2 and NCK-interacting protein kinase (Homo sapiens, UniProt Q9UKE5).
The target of assay [9] is GTP-binding nuclear protein Ran (Homo sapiens, UniProt P62826).
For assay [10], the target named is T3, Activin receptor type-1B (Homo sapiens, UniProt P36896).
T3 sequence (P36896 whole entry): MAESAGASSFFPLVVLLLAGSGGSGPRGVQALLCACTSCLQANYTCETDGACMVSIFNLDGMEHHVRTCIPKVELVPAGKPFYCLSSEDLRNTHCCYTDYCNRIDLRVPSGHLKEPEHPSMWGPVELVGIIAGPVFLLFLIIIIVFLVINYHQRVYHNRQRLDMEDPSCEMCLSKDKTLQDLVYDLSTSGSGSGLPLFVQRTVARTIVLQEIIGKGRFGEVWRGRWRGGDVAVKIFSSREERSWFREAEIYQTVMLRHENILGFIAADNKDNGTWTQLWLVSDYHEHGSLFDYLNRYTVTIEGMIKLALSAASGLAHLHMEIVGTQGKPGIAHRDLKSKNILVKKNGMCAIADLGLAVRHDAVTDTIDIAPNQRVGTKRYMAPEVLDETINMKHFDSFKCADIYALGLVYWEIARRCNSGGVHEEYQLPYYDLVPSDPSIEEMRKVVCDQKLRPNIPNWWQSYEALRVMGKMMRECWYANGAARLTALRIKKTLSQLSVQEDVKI

For assay [11], the target named is Ribosomal protein S6 kinase alpha-4 (Homo sapiens, UniProt O75676).
Ribosomal protein S6 kinase alpha-4, sequence (O75676 whole entry): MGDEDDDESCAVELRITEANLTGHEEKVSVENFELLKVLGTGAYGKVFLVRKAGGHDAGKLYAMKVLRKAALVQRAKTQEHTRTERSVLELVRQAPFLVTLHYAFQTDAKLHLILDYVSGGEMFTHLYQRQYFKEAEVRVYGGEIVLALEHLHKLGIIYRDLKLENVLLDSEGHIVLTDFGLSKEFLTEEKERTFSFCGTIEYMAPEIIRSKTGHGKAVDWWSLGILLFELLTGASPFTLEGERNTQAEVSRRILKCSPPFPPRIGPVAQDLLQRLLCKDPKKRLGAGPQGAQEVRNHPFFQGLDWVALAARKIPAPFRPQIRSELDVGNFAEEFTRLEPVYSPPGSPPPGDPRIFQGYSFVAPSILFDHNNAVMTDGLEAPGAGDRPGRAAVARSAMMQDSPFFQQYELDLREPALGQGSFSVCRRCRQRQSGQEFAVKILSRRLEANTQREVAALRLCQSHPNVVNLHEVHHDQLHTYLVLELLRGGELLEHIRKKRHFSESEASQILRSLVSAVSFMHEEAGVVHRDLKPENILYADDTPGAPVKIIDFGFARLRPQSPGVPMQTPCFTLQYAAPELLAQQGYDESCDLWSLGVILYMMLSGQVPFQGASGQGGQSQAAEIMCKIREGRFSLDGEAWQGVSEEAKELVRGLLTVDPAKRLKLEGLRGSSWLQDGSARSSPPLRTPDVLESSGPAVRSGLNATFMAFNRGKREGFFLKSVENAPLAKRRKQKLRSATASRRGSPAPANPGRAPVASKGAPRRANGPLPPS
Assay [12] deals with 5'-AMP-activated protein kinase catalytic subunit alpha-1 (Homo sapiens, UniProt Q13131).
5'-AMP-activated protein kinase catalytic subunit alpha-1, sequence (Q13131 whole entry): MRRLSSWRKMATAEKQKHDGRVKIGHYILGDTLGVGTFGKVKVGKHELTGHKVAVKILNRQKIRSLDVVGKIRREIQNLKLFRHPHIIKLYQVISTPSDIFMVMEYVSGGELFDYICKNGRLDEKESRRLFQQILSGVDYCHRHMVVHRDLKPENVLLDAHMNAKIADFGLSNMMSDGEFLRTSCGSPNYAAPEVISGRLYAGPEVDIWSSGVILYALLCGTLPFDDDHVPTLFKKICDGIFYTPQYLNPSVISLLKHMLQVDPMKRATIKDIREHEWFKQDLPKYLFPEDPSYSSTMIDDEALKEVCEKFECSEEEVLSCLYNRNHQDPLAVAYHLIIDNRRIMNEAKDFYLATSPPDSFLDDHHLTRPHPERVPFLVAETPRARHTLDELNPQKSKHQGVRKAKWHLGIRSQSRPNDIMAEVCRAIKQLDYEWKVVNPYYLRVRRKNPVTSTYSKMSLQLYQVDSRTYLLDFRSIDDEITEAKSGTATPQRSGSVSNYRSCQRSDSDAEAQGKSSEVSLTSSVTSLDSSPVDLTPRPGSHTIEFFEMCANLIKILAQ
The target in assay [13] is Tyrosine-protein kinase CSK (Homo sapiens, UniProt P41240).
Tyrosine-protein kinase CSK, sequence (P41240 whole entry): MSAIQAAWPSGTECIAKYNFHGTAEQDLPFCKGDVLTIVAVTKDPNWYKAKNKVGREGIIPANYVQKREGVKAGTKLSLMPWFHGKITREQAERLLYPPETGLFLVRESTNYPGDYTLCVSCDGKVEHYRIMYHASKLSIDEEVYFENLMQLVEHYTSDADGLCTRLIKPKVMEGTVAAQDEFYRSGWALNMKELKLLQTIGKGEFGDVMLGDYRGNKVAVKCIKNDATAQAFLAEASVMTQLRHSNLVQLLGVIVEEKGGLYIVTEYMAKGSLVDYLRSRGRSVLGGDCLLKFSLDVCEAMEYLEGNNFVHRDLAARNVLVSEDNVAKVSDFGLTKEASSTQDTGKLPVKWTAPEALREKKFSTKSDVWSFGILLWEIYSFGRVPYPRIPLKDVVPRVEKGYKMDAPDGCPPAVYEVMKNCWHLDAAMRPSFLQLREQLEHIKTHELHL

Calls of active or inactive are those of the source. Cut-off read from the data, not from the text of the source, for most assays here: actives have a measured Kd and inactives only a lower limit. Some results are limits rather than exact numbers.
Note: in the data inactive means no Kd found up to 30 µM.

TRAF2 and NCK-interacting protein kinase, sequence (Q9UKE5 whole entry): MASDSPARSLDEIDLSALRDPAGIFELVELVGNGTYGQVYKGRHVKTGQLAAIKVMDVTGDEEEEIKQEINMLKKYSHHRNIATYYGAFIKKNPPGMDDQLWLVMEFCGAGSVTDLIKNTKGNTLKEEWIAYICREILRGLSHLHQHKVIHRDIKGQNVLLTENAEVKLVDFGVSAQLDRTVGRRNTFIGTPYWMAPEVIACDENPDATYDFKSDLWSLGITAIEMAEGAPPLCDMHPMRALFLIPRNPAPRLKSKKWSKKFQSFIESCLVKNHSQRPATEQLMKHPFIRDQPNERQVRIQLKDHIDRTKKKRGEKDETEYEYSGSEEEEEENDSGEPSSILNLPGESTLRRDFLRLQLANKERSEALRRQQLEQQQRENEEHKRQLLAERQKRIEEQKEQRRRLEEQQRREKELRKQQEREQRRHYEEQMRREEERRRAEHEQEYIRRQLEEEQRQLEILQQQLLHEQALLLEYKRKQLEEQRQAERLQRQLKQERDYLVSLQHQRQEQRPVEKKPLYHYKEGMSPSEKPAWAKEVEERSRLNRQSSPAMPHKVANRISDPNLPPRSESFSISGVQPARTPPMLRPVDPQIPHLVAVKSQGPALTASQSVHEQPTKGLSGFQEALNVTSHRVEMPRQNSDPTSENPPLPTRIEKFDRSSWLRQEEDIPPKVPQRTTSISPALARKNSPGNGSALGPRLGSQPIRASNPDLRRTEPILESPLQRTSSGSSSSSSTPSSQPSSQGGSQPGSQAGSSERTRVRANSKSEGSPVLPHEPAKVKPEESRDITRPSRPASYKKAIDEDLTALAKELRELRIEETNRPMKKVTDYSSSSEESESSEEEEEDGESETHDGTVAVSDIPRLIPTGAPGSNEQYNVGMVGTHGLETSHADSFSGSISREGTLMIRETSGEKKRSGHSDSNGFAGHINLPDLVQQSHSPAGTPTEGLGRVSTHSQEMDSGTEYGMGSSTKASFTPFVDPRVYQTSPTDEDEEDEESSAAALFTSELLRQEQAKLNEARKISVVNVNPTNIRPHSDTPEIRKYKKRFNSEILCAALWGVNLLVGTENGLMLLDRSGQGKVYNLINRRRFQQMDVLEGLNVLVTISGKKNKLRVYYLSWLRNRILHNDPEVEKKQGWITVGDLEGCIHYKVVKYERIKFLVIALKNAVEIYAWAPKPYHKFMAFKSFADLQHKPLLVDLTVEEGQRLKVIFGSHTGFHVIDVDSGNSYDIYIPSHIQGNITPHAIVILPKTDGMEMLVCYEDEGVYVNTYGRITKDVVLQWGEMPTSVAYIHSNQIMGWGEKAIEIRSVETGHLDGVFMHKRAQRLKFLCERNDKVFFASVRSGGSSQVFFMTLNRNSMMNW

Turning to `COc1cc2nccc(Oc3ccc(NC(=O)NC4CC4)c(Cl)c3)c2cc1C(N)=O` [LENVATINIB], the Kd in assay [1], in [2], in assay [3], in [4], in assay [5] and in [6] was > 30 µM (inactive) in each case. Moreover, the Kd (commonly the constant that tells how readily two partners part at equilibrium) in assay [7] was > 30 µM (inactive); in [8], 0.565 µM (active); in assay [9] it was > 30 µM (inactive); in assay [10] it was > 30 µM (inactive); in [11] it was > 30 µM (inactive); in [12], > 30 µM (inactive). Further, the Kd in [13] was > 30 µM (inactive).

In the case of `CO[C@H]1C[C@@H]2CC[C@@H](C)[C@@](O)(O2)C(=O)C(=O)N2CCCC[C@H]2C(=O)O[C@H]([C@H](C)C[C@@H]2CC[C@@H](OCCO)[C@H](OC)C2)CC(=O)[C@H](C)/C=C(\C)[C@@H](O)[C@@H](OC)C(=O)[C@H](C)C[C@H](C)/C=C/C=C/C=C/1C` [EVEROLIMUS], the Kd in [1], in assay [2], in assay [3], in assay [4], in assay [5] and in assay [6] was > 30 µM (inactive) in each case. For the same compound, the Kd in [7], in assay [8], in [9], in assay [10], in assay [11] and in assay [12] was > 30 µM (inactive) throughout. Also, the Kd in [13] is > 30 µM (inactive).

Regarding `Cc1ccc(NC(=O)c2ccc(CN3CC[C@H](N(C)C)C3)c(C(F)(F)F)c2)cc1Nc1nccc(-c2cncnc2)n1` [BAFETINIB], the Kd is > 30 µM (inactive) in assay [1]; > 30 µM (inactive) in [2]; 1.44 µM (active) in assay [3]; > 30 µM (inactive) in assay [4]; > 30 µM (inactive) in assay [5]; > 30 µM (inactive) in [6]. Also, the Kd in [7] is 2.89 µM (active); in [8], > 30 µM (inactive); in [9] it was > 30 µM (inactive); in assay [10] it was > 30 µM (inactive); in assay [11], > 30 µM (inactive); in [12], > 30 µM (inactive). In addition, the Kd in assay [13] was 2.15 µM (active).

As for `C=CC(=O)N1CCC(Oc2cc3c(Nc4ccc(Cl)c(Cl)c4F)ncnc3cc2OC)CC1` [POZIOTINIB], the Kd in assay [2], in assay [3], in assay [4], in [5], in [6] and in assay [7] was > 30 µM (inactive) each time. Also, the Kd in assay [8], in assay [9], in [10], in [11], in assay [12] and in assay [13] was > 30 µM (inactive) in each case.

Consider `CNC(=O)c1cc(Oc2ccc(NC(=O)Nc3ccc(Cl)c(C(F)(F)F)c3)c(F)c2)ccn1` [REGORAFENIB], for which the Kd in [2] is > 30 µM (inactive); in assay [3] it was > 30 µM (inactive); in assay [4], > 30 µM (inactive); in assay [5], > 30 µM (inactive); in assay [6], 0.465 µM (active); in [7], > 30 µM (inactive). The Kd in assay [8], in assay [9], in assay [10], in assay [11], in [12] and in assay [13] was > 30 µM (inactive) throughout.

Consider `Cn1ncc(Cl)c1-c1cc(C(=O)N[C@H](CN)Cc2cccc(F)c2)sc1Cl` [AFURESERTIB], for which the Kd in assay [1] was > 30 µM (inactive); in assay [2], 0.133 µM (active); in [3] it was > 30 µM (inactive); in assay [4], > 30 µM (inactive); in [5], > 30 µM (inactive); in assay [6] it was > 30 µM (inactive). Further, the Kd in assay [7], in assay [8], in assay [10], in assay [11], in [12] and in assay [13] was > 30 µM (inactive) each time.

As to `CC[C@H](Nc1ncnc2[nH]cnc12)c1nc2cccc(F)c2c(=O)n1-c1ccccc1` [IDELALISIB], the Kd in assay [1], in [2], in assay [3], in assay [4], in [5] and in assay [6] was > 30 µM (inactive) throughout. Also, the Kd in assay [7], in assay [8], in assay [10], in assay [11], in assay [12] and in assay [13] was > 30 µM (inactive) throughout.

As to `Cc1ccc(S(=O)(=O)Nc2nc3ccccc3nc2Nc2ccc3nsnc3c2)cc1`, the Kd in assay [2], in assay [3], in [4], in assay [5], in assay [6] and in [7] was > 30 µM (inactive) in each case. Further, the Kd in assay [8], in assay [9], in assay [10], in assay [11], in assay [12] and in [13] was > 30 µM (inactive) in each case.

As to `CN1N=C(N)c2cn([C@@H]3O[C@H](COP(=O)(O)O)[C@@H](O)[C@H]3O)c3ncnc1c23` [TRICIRIBINE PHOSPHATE], the Kd in assay [1], in assay [2], in assay [3], in assay [4], in assay [5] and in assay [6] was > 30 µM (inactive) throughout. Further, the Kd in [8], in assay [9], in assay [10], in [11], in assay [12] and in [13] was > 30 µM (inactive) each time.

Source of the values: ChEMBL document CHEMBL3991601, “The target landscape of clinical kinase drugs” (Science, 2017).
